{"source": "patent US11814652B2", "about": "“Pluripotent stem cell differentiation-promoting agent” (Oriental Yeast Co., Ltd., priority 2018, dated 2023)", "key": {"[1]": {"tested_on": "iPS cells 201B7 strain", "assay": "Flow cytometry of Brachyury/CD56 mesodermal markers, differentiation-induction in medium with β-NMN (Example 3)", "type": "cell-based, human", "protocol": "The effects of β-NMN on the mesodermal differentiation-induction of iPS cells were examined. The 201B7 strain was used as the iPS cells. The iPS cells were seeded in a 24-well plate coated with Matrigel (manufactured by Corning Incorporated) according to the manufacturer's protocol at 1×10^5 cells/well. The cells in the 24-well plate were cultured in a culture medium for iPS cells adjusted to have a final concentration of Rock inhibitor of 10 μM for 1 day. From the 1st day after seeding, the culture medium was replaced with a culture medium prepared by adjusting a mesoderm differentiation-inducing culture medium of “STEMdiff Trilineage Differentiation kit” (manufactured by STEMCELL Technologies) to have a final concentration of β-NMN of 0, 0.1, 0.25, or 1 mM for 1 day. […] Then, the cells were stained with a fluorescence-labeled anti-Brachyury antibody (manufactured by Merck, clone 3E4.2) and a fluorescence-labeled anti-CD56 antibody (manufactured by Biolegend, clone HCD56). After washing the stained cells, a flow cytometer “FACS caliber” (manufactured by Becton, Dickinson and Company) was used to analyze the fluorescence intensity of the anti-Brachyury antibody and the fluorescence intensity of the anti-CD56 antibody in each sample. […]"}, "[2]": {"tested_on": "iPS cells 253G1 strain", "assay": "Flow cytometry of Sox17 after endodermal differentiation-induction following undifferentiated culture with β-NMN (Example 5)", "type": "cell-based", "conditions": "β-NMN 0.25 or 1 mM during undifferentiated culture, then endodermal differentiation-induction; 5th or 7th day; versus absence of β-NMN", "protocol": "The effects of culturing in the presence of β-NMN before induction of differentiation on the endodermal differentiation-induction of iPS cells was examined. As the iPS cells, the 253G1 strain was used. iPS cells seeded on a culture dish coated with Matrigel (manufactured by Corning Incorporated) according to the manufacturer's protocol were cultured in a culture medium prepared by adjusting a culture medium for iPS cells to have a final concentration of β-NMN 0, 0.25 or 1 mM, and a final concentration of Rock inhibitor of 10 μM for 1 day. From the 1st day after seeding, the culture medium was replaced every day with a culture medium obtained by removing the Rock inhibitor from the culture medium at the time of seeding. When the confluent reached 70 to 80%, the iPS cells were detached from the culture dish and collected. The collected iPS cells were seeded at 3×10^5 cells/well in a 24-well plate coated with Matrigel (manufactured by Corning Incorporated) according to the manufacturer's protocol. […] After washing the stained cells, a flow cytometer “FACS caliber” (manufactured by Becton, Dickinson and Company) was used to analyze the fluorescence intensity of the anti-Sox17 antibody and the fluorescence intensity of the anti-FoxA2 antibody in each sample. […]"}, "[3]": {"tested_on": "iPS cells 201B7 strain", "assay": "Flow cytometry of Nestin/Pax6 ectodermal markers, differentiation-induction in medium with β-NMN (Example 2)", "type": "cell-based, human", "conditions": "ectodermal differentiation-inducing medium with β-NMN 0.1, 0.25 or 1 mM; 2nd, 4th, 7th day; versus absence of β-NMN", "protocol": "The effect of β-NMN on the ectodermal differentiation-induction of the iPS cells was examined. The 201B7 strain was used as the iPS cells. The iPS cells were seeded in a 12-well plate coated with Matrigel (manufactured by Corning Incorporated) according to the manufacturer's protocol at 8×10^5 cells/well. The cells in the 12-well plate were cultured in a culture medium prepared by adjusting an ectodermal differentiation-inducing culture medium of “STEMdiff Trilineage Differentiation kit” (manufactured by STEMCELL Technologies) to have a final concentration of β-NMN of 0, 0.1, 0.25, or 1 mM, and a final concentration of Rock inhibitor of 10 μM for 1 day. From the 1st day after seeding, the medium was replaced every day with a culture medium obtained by removing the Rock inhibitor from the culture medium at the time of seeding. […] Then, the cells were stained with a fluorescence-labeled anti-Nestin antibody (manufactured by Biolegend, clone 10C2) and a fluorescence-labeled anti-Pax6 antibody (manufactured by Becton, Dickinson and Company, clone O18-1330). After washing the stained cells, a flow cytometer “FACScaliber” (manufactured by Becton, Dickinson and Company) was used to analyze the fluorescence intensity of the anti-Nestin antibody and the fluorescence intensity of the anti-Pax6 antibody in each sample. […]"}}}
{"smiles": "NC(=O)c1ccc[n+]([C@@H]2O[C@H](COP(=O)([O-])O)[C@@H](O)[C@H]2O)c1", "note": "[β-NMN, β-nicotinamide mononucleotide]", "values": [{"measurement": "ratio of Brachyury-positive CD56-positive cells", "setting": "[1]; mesodermal differentiation-inducing medium with β-NMN 0.1, 0.25 or 1 mM, 5th or 7th day, versus absence of β-NMN", "result": "no clear difference"}, {"measurement": "ratio of Brachyury-positive CD56-positive cells", "setting": "[1]; β-NMN added at 1 mM, versus culturing without β-NMN", "result": "obviously lower"}, {"measurement": "ratio of Sox17-positive cells", "setting": "[2]", "result": "higher"}, {"measurement": "ratio of Nestin-positive Pax6-positive cells", "setting": "[3]", "result": "higher"}]}
